Columns and labels:
Assay in all cases: Post-emergence herbicidal test, % visual injury
Assay type in all cases: in vivo
Details in all cases: 336 h, rate 500 g/ha, 14±1 days post application
[1] = test system: Amaranthus retroflexus (AMARE)
Description: (§1) Seeds of a variety of test species are grown in a sandy loam soil mixture, Lolium multiflorum (LOLMU), Amaranthus retroflexus (AMARE), Echinochloa crus-galli (ECHCG), Veronica persica (VERPE).
(§2) After sowing, at growth stage BBCH 12-14 (post-emergence), the plants are sprayed with an aqueous spray solution derived from the formulation of the technical active ingredient in acetone/water (50:50) solution containing 0.5% Tween 20 (polyoxyethlyene sorbitan monolaureate, CAS RN 9005-64-5). The test compounds are applied at the required concentration of active ingredient in g/ha. The test plants are then grown in a glasshouse under controlled environmental conditions and watered regularly as required. After 14±1 days post application (for post-emergence test), the test is evaluated by assessing the percentage damage caused to the plants in comparison with the untreated plots. The biological activities for post-emergence testing are shown below (Table 3) as a % visual injury.

[2] = test system: Echinochloa crus-galli (ECHCG)
Description: as §1, §2

[3] = test system: Lolium multiflorum (LOLMU)
Description: as §1, §2

Veronica persica (VERPE) = test system: Veronica persica (VERPE)
Description: as §1, §2

| Compound | pest or weed control at 500 g/ha [1] | pest or weed control at 500 g/ha [2] | pest or weed control at 500 g/ha [3] | pest or weed control at 500 g/ha (Veronica persica (VERPE)) |
| --- | --- | --- | --- | --- |
| O=C(COc1ccc(F)cc1Cl)Nc1n[nH]c(C2CC2)n1 [Compound 1] | 100% | 90% | 40% | 60% |
| COCc1n[nH]c(NC(=O)COc2ccc(F)cc2Cl)n1 [Compound 3] | 100% | 90% | 60% | 90% |
| O=C(COc1cccc(C(F)(F)F)c1)Nc1nnc(C(F)(F)F)[nH]1 [Compound 4] | 99% | 20% | 0% | 80% |
| O=C(COc1ccc(F)c(Cl)c1)Nc1nnc(C(F)(F)F)[nH]1 [Compound 5] | 80% | 30% | 0% | 98% |
| O=C(COc1ccc(F)cc1Cl)Nc1nnc(N2CCCC2)[nH]1 [Compound 6] | 50% | 20% | 0% | 50% |
| CC(C)(C)c1nc(NC(=O)COc2ccc(F)cc2Cl)n[nH]1 [Compound 7] | 60% | 80% | 40% | 60% |
| O=C(COc1c(Cl)cccc1Cl)Nc1nnc(C(F)(F)F)[nH]1 [Compound 9] | 20% | 0% | 0% | 0% |
| O=C(COc1ccc(F)cc1F)Nc1nnc(C(F)(F)F)[nH]1 [Compound 10, 2-(2,4-difluorophenoxy)-N-[5-(trifluoromethyl)-4H-1,2,4-triazol-3-yl]acetamide] | 40% | 30% | 0% | 80% |
| CCC(Oc1ccccc1Cl)C(=O)Nc1nnc(C(F)(F)F)[nH]1 (centres unmarked) [Compound 12] | 70% | 10% | 0% | 60% |
| CS(=O)(=O)c1ccc(OCC(=O)Nc2nnc(C(F)(F)F)[nH]2)cc1 [Compound 13] | 60% | 0% | 60% | 80% |
| O=C(COc1ccc(F)cc1Cl)Nc1nnc(C(F)F)[nH]1 [Compound 14] | 100% | 90% | 60% | 60% |
| Cc1ccc(OCC(=O)Nc2nnc(C(F)(F)F)[nH]2)c(Br)c1 [Compound 15] | 0% | 0% | 0% | 50% |
| O=C(COc1ccc(Cl)c(F)c1)Nc1nnc(C(F)(F)F)[nH]1 [Compound 16, 2-(4-chloro-3-fluorophenoxy)-N-[5-(trifluoromethyl)-4H-1,2,4-triazol-3-yl]acetamide] | 100% | 20% | 0% | 70% |
| O=C(COc1ccc(Br)cc1F)Nc1nnc(C(F)(F)F)[nH]1 [Compound 17] | 60% | 0% | 0% | 70% |
| Cc1cccc(Cl)c1OCC(=O)Nc1nnc(C(F)(F)F)[nH]1 [Compound 18] | 0% | 0% | 0% | 70% |
| CCC(Oc1ccccc1F)C(=O)Nc1nnc(C(F)(F)F)[nH]1 (centres unmarked) [Compound 19] | 0% | 0% | 0% | 20% |
| Cc1ccc(OCC(=O)Nc2nnc(C(F)(F)F)[nH]2)cc1 [Compound 20] | 0% | 30% | 0% | 40% |
| O=C(COc1cccc(Br)c1)Nc1nnc(C(F)(F)F)[nH]1 [Compound 21] | 0% | 0% | 20% | 60% |
| O=C(COc1ccc(F)cc1Cl)Nc1n[nH]c(C2CCC2)n1 [Compound 22] | 100% | 90% | 40% | 90% |
| CC(C)c1nnc(NC(=O)COc2ccc(F)cc2Cl)[nH]1 [Compound 23, 2-(2-chloro-4-fluorophenoxy)-N-[5-(propan-2-yl)-4H-1,2,4-triazol-3-yl]acetamide] | 100% | 90% | 40% | 100% |
| CN(C)c1n[nH]c(NC(=O)COc2ccc(F)cc2Cl)n1 [Compound 24] | 70% | 70% | 0% | 50% |
| O=C(COc1nc(Cl)c(Cl)cc1Cl)Nc1nnc(C(F)(F)F)[nH]1 [Compound 37] | 80% | 60% | 5% | 30% |
| Nc1c(Cl)c(F)nc(OCC(=O)Nc2nnc(C(F)(F)F)[nH]2)c1Cl [Compound 38] | 100% | 0% | 30% | 98% |
| O=C(COc1cc(Cl)c(Cl)cc1Cl)Nc1nnc(C(F)(F)F)[nH]1 [Compound 39] | 80% | 0% | 0% | 50% |
| Cn1c(NC(=O)COc2ccc(F)cc2Cl)nnc1C(F)(F)F [Compound 40] | 100% | 70% | 60% | 100% |
| Cn1nc(C(F)(F)F)nc1NC(=O)COc1ccc(F)cc1Cl [Compound 41, 2-(2-chloro-4-fluorophenoxy)-N-[1-methyl-3-(trifluoromethyl)-1H-1,2,4-triazol-5-yl]acetamide] | 95% | 60% | 40% | 70% |
| CN(C(=O)COc1ccc(F)cc1Cl)c1nc(C(F)(F)F)nn1C [Compound 42, 2-(2-chloro-4-fluorophenoxy)-N-methyl-N-[1-methyl-3-(trifluoromethyl)-1H-1,2,4-triazol-5-yl]acetamide] | 90% | 60% | 40% | 60% |
| Cc1ccccc1OCCCC(=O)Nc1nnc(C(F)(F)F)[nH]1 [Compound 89] | 40% | 0% | 0% | 95% |
| O=C(COc1ccc2c(c1)NC(=O)CC2)Nc1nc(C(F)(F)F)n[nH]1 [Compound 90] | 0% | 0% | 0% | 70% |
